In one data set the target is T1, human (h) TRPV3 (Homo sapiens, UniProt Q8NET8).
T1 construct: expressed in transfected cells; host or cells: HEK293/TREx, tetracycline-induced
T1 sequence (Q8NET8 1-790): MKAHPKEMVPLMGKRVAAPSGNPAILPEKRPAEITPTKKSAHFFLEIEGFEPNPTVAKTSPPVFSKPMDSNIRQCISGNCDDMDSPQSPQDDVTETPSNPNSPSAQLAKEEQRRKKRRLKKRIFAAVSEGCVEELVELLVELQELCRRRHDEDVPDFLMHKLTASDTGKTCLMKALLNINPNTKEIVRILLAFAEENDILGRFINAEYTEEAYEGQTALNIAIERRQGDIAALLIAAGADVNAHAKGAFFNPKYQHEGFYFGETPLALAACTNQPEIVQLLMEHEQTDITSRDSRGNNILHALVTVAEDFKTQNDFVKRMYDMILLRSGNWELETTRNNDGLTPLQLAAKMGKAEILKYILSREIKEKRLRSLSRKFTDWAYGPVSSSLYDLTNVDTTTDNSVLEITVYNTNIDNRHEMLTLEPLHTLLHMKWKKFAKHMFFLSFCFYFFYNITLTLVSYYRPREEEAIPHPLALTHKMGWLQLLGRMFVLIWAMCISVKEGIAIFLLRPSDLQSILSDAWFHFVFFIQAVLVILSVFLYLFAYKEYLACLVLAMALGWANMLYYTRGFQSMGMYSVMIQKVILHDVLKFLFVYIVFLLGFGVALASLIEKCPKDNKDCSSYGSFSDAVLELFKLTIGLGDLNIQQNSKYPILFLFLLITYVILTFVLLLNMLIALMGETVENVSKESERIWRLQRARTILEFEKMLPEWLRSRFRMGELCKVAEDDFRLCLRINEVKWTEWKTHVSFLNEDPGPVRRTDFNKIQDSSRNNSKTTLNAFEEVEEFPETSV
Put plainly: Whole-cell patch clamp, human TRPV3-mediated currents.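 Note: compounds tested at concentrations up to 30 µM.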 It is filed as cell-based. The text has this:
(§1) Whole-cell patch clamp experiments permit the detection of currents through the TRPV3 channel in the cell line described above. A glass electrode is brought into contact with a single cell and the membrane is then ruptured, permitting control of the voltage of the cell membrane and measurement of currents flowing across the membrane using the amplifier attached to the electrode. A perfusion system permits control of the extracellular solution, including the addition of blockers and activators of the current. The current can be activated by heating this solution to 28° C. or warmer or by addition of 20 μM 2-APB to the solution.
(§2) TRPV3 cells were induced 20-48 hours, removed from growth plates, and replated at low density (to attain good single-cell physical separation) on glass coverslips for measurement. In some cases, cells were grown in low density overnight on glass coverslips. Patch clamp recordings were made in the whole-cell mode with a holding potential of −40 mV. Every 5 seconds, a voltage ramp was applied from −120 to +100 mV, 400 ms in duration. Currents elicited were quantified at −80 mV and +80 mV. The internal solution consisted of 140 mM cesium aspartate, 10 mM EGTA, 2.27 mM MgCl2, 1.91 mM CaCl2 and 10 mM HEPES, pH to 7.2 with KOH; with 50 nM calculated free Ca^2+. External solution was Ringer's solution described above. Upon addition of 2-APB or upon heating of the extracellular solution as described above, TRPV3 current was induced only in TRPV3-expressing cells and not in parental HEK293 TREx cells. […] Removal of the stimulus caused most of the current to go away, and inhibitor addition could still inhibit this current. […]
(§3) P1 refers to the Phase 1 current for human (h) and rat (r) TRPV3, and P2 refers to the Phase 2 current for human (h) and rat (r) TRPV3.

The next data set deals with T2, rat (r) TRPV3 (Rattus norvegicus, UniProt Q4QYD9).
T2 construct: expressed in transfected cells
T2 sequence (Q4QYD9 1-791): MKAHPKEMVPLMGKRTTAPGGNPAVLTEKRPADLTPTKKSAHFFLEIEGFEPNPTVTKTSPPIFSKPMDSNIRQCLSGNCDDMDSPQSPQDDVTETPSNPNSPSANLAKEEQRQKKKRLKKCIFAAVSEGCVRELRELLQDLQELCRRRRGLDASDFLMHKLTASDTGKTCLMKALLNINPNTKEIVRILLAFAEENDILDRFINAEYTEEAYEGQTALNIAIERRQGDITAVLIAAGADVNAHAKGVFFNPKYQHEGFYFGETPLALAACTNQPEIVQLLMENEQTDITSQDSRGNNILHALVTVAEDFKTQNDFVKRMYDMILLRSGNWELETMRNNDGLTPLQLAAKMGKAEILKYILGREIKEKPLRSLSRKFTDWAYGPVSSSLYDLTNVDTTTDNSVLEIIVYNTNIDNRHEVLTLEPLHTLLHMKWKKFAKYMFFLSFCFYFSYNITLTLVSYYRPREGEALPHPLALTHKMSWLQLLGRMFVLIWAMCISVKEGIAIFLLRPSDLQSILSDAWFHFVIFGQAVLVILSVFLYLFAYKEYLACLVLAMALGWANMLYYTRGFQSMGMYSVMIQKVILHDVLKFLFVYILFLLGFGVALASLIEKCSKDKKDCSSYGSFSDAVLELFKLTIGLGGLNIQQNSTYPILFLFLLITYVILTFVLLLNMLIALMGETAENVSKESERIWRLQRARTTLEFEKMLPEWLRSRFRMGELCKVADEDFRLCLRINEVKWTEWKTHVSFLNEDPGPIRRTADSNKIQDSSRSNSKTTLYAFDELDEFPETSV
Put plainly: Whole-cell patch clamp, rat TRPV3-mediated currents.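 Note: compounds tested at concentrations up to 30 µM.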 The format is cell-based.
Source text: as §1, §2, §3
In general terms: Patch clamp records ionic current or voltage across a cell membrane.

The target of another data set is hERG (Homo sapiens, UniProt Q12809). Put plainly: Ion channel selectivity, hERG channel current. A general note: hERG is a cardiac potassium channel; its block is linked to QT prolongation.
hERG, sequence (Q12809 whole entry): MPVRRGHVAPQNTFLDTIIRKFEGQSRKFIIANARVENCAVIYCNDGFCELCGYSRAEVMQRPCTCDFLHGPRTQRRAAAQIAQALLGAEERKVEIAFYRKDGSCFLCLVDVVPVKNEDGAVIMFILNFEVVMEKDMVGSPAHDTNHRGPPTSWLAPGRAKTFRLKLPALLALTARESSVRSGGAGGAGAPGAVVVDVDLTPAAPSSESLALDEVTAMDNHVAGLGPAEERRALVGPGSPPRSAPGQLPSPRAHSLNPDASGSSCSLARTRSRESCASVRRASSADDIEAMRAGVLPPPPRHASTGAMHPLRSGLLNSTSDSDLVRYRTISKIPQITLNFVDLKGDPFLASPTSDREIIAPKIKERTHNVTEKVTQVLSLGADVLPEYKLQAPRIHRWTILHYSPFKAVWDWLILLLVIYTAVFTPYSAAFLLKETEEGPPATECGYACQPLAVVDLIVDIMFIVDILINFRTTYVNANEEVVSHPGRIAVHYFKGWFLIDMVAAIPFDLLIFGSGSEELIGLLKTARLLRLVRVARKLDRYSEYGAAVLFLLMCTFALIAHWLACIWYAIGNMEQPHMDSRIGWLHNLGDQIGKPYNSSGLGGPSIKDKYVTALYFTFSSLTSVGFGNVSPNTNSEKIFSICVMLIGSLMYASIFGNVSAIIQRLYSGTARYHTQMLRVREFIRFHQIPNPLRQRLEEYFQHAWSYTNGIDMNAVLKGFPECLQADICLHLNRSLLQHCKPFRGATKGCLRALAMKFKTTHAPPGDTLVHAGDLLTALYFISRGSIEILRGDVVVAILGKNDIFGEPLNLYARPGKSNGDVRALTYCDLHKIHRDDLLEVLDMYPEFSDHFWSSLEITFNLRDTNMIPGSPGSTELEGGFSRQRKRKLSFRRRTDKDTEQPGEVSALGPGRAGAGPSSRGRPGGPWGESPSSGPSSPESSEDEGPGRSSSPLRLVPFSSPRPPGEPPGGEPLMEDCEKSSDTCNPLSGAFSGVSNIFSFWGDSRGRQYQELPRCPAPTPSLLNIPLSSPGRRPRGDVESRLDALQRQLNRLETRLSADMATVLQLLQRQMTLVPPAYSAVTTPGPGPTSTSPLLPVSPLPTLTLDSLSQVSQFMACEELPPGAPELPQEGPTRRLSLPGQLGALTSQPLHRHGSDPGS
Where [1] appears, read: Phase 1 inward current, read-out: P1 In (h).
Setting [2] is: Phase 1 outward current, read-out: P1 Out (h).
Setting [3] is: Phase 2 inward current, read-out: P2 In (h).
[4] abbreviates: Phase 2 outward current, read-out: P2 Out (h).
Where [5] appears, read: Phase 1 inward current, read-out: P1 In (r).
[6] abbreviates: Phase 1 outward current, read-out: P1 Out (r).
The mark [7] stands for this setting: Phase 2 inward current, read-out: P2 In (r).
Setting [8] is: Phase 2 outward current, read-out: P2 Out (r).

Where two headings read alike, the source gives them in different places.

Protocol for hERG: Compounds of interest can be tested against these channels at concentrations up to 30 μM, and the resulting data can be used to estimate IC50 for inhibition of the activity of these other ion channels.

Take `CCOc1cccc(/C=C/c2nc3cnccc3c(=O)n2-c2c(C)cccc2C)c1O` [Compound 11]: the IC50 on human (h) TRPV3 (setting [1]), at human (h) TRPV3 (setting [2]), on human (h) TRPV3 (setting [3]), on human (h) TRPV3 (setting [4]), at rat (r) TRPV3 (setting [5]) and at rat (r) TRPV3 (setting [6]) was ≤ 500 nM in each case. Further, the IC50 against hERG is ≥ 20000 nM.

For the compound `CCOc1cccc(C=Cc2nc3ccccc3c(=O)n2-c2c(C)cccc2C)c1O` [Compound 49], the IC50 at human (h) TRPV3 (setting [1]), at human (h) TRPV3 (setting [2]), on human (h) TRPV3 (setting [3]), at human (h) TRPV3 (setting [4]), on rat (r) TRPV3 (setting [5]) and at rat (r) TRPV3 (setting [6]) was ≤ 500 nM each time. Besides, the figures for the IC50 on rat (r) TRPV3 (setting [7]), on rat (r) TRPV3 (setting [8]) and against hERG were ≤ 500 nM, ≤ 500 nM and ≥ 20000 nM, respectively.

For `CCc1cccc(CC)c1-n1c(/C=C/c2cccc(OC)c2O)nc2ccccc2c1=O` [Compound 50], the IC50 at human (h) TRPV3 (setting [1]), on human (h) TRPV3 (setting [2]), on human (h) TRPV3 (setting [3]), on human (h) TRPV3 (setting [4]), on rat (r) TRPV3 (setting [5]) and at rat (r) TRPV3 (setting [6]) was ≤ 500 nM throughout. The IC50 is ≤ 500 nM at rat (r) TRPV3 (setting [7]), ≤ 500 nM at rat (r) TRPV3 (setting [8]) and ≥ 20000 nM at hERG.

Take `COc1cccc(C=Cc2nc3cnccc3c(=O)n2-c2c(C)cccc2C)c1O` [Compound 8]: the IC50 at human (h) TRPV3 (setting [3]), at human (h) TRPV3 (setting [4]), at rat (r) TRPV3 (setting [5]), at rat (r) TRPV3 (setting [6]), at rat (r) TRPV3 (setting [7]) and on rat (r) TRPV3 (setting [8]) was ≤ 500 nM in each case. Moreover, on hERG, the IC50 is ≥ 20000 nM.

With `COc1cccc(/C=C/c2nc3cnccc3c(=O)n2-c2c(C)cccc2OC)c1O` [Compound 14], the IC50 at human (h) TRPV3 (setting [1]), at human (h) TRPV3 (setting [2]), on human (h) TRPV3 (setting [3]), at human (h) TRPV3 (setting [4]), on rat (r) TRPV3 (setting [5]) and at rat (r) TRPV3 (setting [6]) was ≤ 500 nM throughout. Further, the IC50 on rat (r) TRPV3 (setting [7]) was ≤ 500 nM; at rat (r) TRPV3 (setting [8]), ≤ 1000 nM.

For the compound `Cc1cccc(C)c1-n1c(/C=C/c2cccc(OC(C)C)c2O)nc2ccccc2c1=O` [Compound 51], the IC50 at human (h) TRPV3 (setting [1]), on human (h) TRPV3 (setting [2]), on human (h) TRPV3 (setting [3]), at human (h) TRPV3 (setting [4]), at rat (r) TRPV3 (setting [5]) and on rat (r) TRPV3 (setting [6]) was ≤ 500 nM each time.

With `COc1cccc(/C=C/c2nc3ccccc3c(=O)n2-c2c(C)cncc2C)c1O` [Compound 33], the IC50 at human (h) TRPV3 (setting [1]) was ≤ 500 nM; on human (h) TRPV3 (setting [2]) it was ≤ 500 nM; at human (h) TRPV3 (setting [3]) it was ≤ 500 nM; at human (h) TRPV3 (setting [4]) it was ≤ 5000 nM; on rat (r) TRPV3 (setting [5]), ≤ 500 nM; at rat (r) TRPV3 (setting [6]), ≤ 500 nM. For the same compound, the IC50 on rat (r) TRPV3 (setting [7]) and on rat (r) TRPV3 (setting [8]) was ≤ 500 nM in each case.

For `COc1cccc(/C=C/c2nc3ccccc3c(=O)n2-c2c(F)cccc2F)c1O` [Compound 56], the IC50 at human (h) TRPV3 (setting [1]), at human (h) TRPV3 (setting [2]), on human (h) TRPV3 (setting [3]), at human (h) TRPV3 (setting [4]), on rat (r) TRPV3 (setting [5]) and at rat (r) TRPV3 (setting [6]) was ≤ 500 nM each time. The IC50 at rat (r) TRPV3 (setting [7]) and on rat (r) TRPV3 (setting [8]) was ≤ 500 nM throughout.

Consider `Cc1cccc(C)c1-n1c(/C=C/c2cccc(OC(F)(F)F)c2O)nc2ccccc2c1=O` [Compound 55], for which the IC50 on human (h) TRPV3 (setting [1]), at human (h) TRPV3 (setting [2]), at human (h) TRPV3 (setting [3]), at human (h) TRPV3 (setting [4]), at rat (r) TRPV3 (setting [5]) and on rat (r) TRPV3 (setting [6]) was ≤ 500 nM throughout. The IC50 at hERG is ≥ 20000 nM.

`CCOc1nccc(/C=C/c2nc3ccccc3c(=O)n2-c2ccccc2C)c1O` [Compound 43]: the IC50 at human (h) TRPV3 (setting [1]), on human (h) TRPV3 (setting [2]), on human (h) TRPV3 (setting [3]), at human (h) TRPV3 (setting [4]), on rat (r) TRPV3 (setting [5]) and at rat (r) TRPV3 (setting [6]) was ≤ 500 nM each time. The IC50 on rat (r) TRPV3 (setting [7]) and on rat (r) TRPV3 (setting [8]) was ≤ 500 nM throughout.

Take `CCOc1cccc(C=Cc2nc3ccccc3c(=O)n2-c2c(F)cccc2F)c1O` [Compound 57]: the IC50 at human (h) TRPV3 (setting [1]), at human (h) TRPV3 (setting [2]), at human (h) TRPV3 (setting [3]), on human (h) TRPV3 (setting [4]), at rat (r) TRPV3 (setting [5]) and on rat (r) TRPV3 (setting [6]) was ≤ 500 nM throughout.

For the origin of these results see patent US9486455B2, “Compounds for modulating TRPV3 function” (HYDRA BIOSCIENCES, INC., priority 2007, dated 2016).
